≈ marks a conversion by molar mass, not a printed value. Where “and” joins values, the source holds several entries; their conditions need not be identical. Equal entries are not always repeated. Where two headings read alike, the source gives them in different places. Some results are limits rather than exact numbers.

Data set [1] deals with C. perfringens. The format is cell-based, Clostridium perfringens.
Another data set has as its system A. niger (ATCC 9142). The settings on record: ATCC 9142, pH 7.
Data set [2] concerns Bacillus subtilis (ATCC 6633).
The subject of data set [3] is Aspergillus flavus (DSMZ 1959). The settings on record: DSMZ 1959, pH 7.
The next data set relates to human erythrocytes. The settings on record: pH 7.4.
Data set [4] deals with C. perfringens. The format is cell-based, Clostridium perfringens. This is another data set of the same source.
For data set [5], the system named is Helicobacter pylori (ATCC 43504).
Details of data set [6]: key: -- indicates the absence of interaction. The following applies: lipid monolayer on PBS pH 7.4, peptide 1 µM, extrapolated to delta pressure 0; -- = absence of interaction. Here is the method:
(§1) Peptide–lipid interaction was evaluated using reconstituted lipid monolayer at the air–water interface as previously described. Pure prokaryotic and eukaryotic lipids used were: POPC (1-palmitoyl-2-oleoyl-glycero-3-phosphocholine), POPE (1-palmitoyl-2-oleoyl-sn-glycero-3-phosphoethanolamine), POPG (1-palmitoyl-2-oleoyl-sn-glycero-3-phospho-(1’-rac-glycerol), and cardiolipin, all from Avanti Polar Lipid (Alabama, USA). LTA (Lipoteichoic acid from B. subtilis) was obtained from Invivogen SAS (Toulouse, France). Pure lipids were reconstituted in chloroform:methanol (2:1, v:v) at 1 mg/mL and stored at −20 °C under nitrogen. The interaction and insertion of the ENN and BEA into lipids were evaluated through the measurement of their critical pressure of insertion as previously described. Briefly, lipids were spread using a 50 µL Hamilton’s syringe at the surface of 800 µL of sterile PBS creating a lipid monolayer at the air–water interface. Lipids were added until the surface pressure reached the desired value. After 5–10 min of incubation allowing evaporation of the solvent and stabilization of the initial surface pressure, 8 µL of ENN or BEA diluted in sterile PBS at 100 µM were injected into the 800 µL sub-phase of PBS under the lipid monolayer (pH 7.4, volume 800 µL) using a 10 µL Hamilton syringe giving a final concentration of peptides of 1 µM, preliminary experiments having shown that this concentration gave optimal insertion. The variation of the surface pressure caused by peptide injection was then continuously monitored using a fully automated microtensiometer (µTROUGH SX, Kibron Inc., Helsinki, Finland) until reaching equilibrium (maximal surface pressure increase being usually obtained after 15–25 min). The critical pressure of insertion of each peptide was determined by changing the initial pressure of lipid monolayer (from 10 and 30 mN/m) and measuring the variation of pressure caused by the insertion of the peptide. The critical pressure of insertion of each peptide in a particular lipid was determined graphically and calculated as the theoretical value of initial pressure of lipid monolayer not permissive to peptide insertion, i.e., causing a variation of pressure equal to 0 mN/m.

In a further data set the test system is A. ochraceus (DSMZ 824). The following applies: DSMZ 824, pH 7.
In data set [7] the test system is Staphylococcus aureus (ATCC CRM-6538P).
Data set [8] relates to Acinetobacter baumannii (CIP 110431).
Data set [9] has as its system Nisin-resistant B. subtilis (DSMZ 347).
For data set [10], the system named is Pseudomonas aeruginosa (ATCC CRM-9027).
Details of data set [11]: species or system B. subtilis; key: -- indicates the absence of interaction. The following applies: lipid monolayer on PBS pH 7.4, peptide 1 µM, extrapolated to delta pressure 0; -- = absence of interaction. As to the method:
as §1

For data set [12], the system named is Stachybotrys chartarum (DSMZ 2144). The following applies: DSMZ 2144, pH 7.
In data set [13] the test system is Clostridium perfringens (ATCC 13124).
For data set [14] the following is noted: lipid monolayer at air-water interface on PBS pH 7.4, peptide 1 µM, initial pressure 10-30 mN/m, extrapolated to delta pressure 0. Here is the method:
as §1

Data set [15] has as its system Fusarium graminearum (DSMZ 1095). The following applies: DSMZ 1095, pH 7.
Data set [16] has as its system F. verticillioides (DSMZ 62264). The following applies: DSMZ 62264, pH 7.
The test system of data set [17] is HEK (human normal epidermal keratinocytes). The following applies: 48 h.
Data set [18] has as its system F. oxysporum (DSMZ 62316). The settings on record: DSMZ 62316, pH 7.
Data set [19] concerns C. perfringens. Type of data set: cell-based, Clostridium perfringens. The source holds these as a separate data set.
The test system of data set [20] is Mycobacterium smegmatis (mc2155, ATCC 700084). The settings on record: mc2155, 72 h.
The test system of data set [21] is Escherichia coli (ATCC 8739).
Data set [22] relates to Penicillium verrucosum (DSMZ 12639). The settings on record: DSMZ 12639, pH 7.
In data set [23] the test system is N87 (human gastric cell line). The settings on record: 48 h.
The subject of data set [24] is Vancomycin-resistant Enterococcus faecalis (DSMZ 13591).
The subject of data set [25] is Methicillin-resistant S. aureus strain MRSA USA300.
The subject of data set [26] is Candida albicans (DSMZ 10697). The settings on record: DSMZ 10697, 24 h, pH 7.
The mark [27] stands for this setting: C. perfringens, 5 x MIC, 4 h, 37 °C, anaerobic, FM4-64FX membrane and DAPI DNA staining, confocal microscope.

On to `CC1(C)S[C@@H]2[C@H](NC(=O)[C@H](N)c3ccc(O)cc3)C(=O)N2[C@H]1C(=O)O` [Amoxicillin, reference compound], for which, in the data set with C. perfringens [1] (setting [27]), the “Observed Morphology” value is given as “• Elongated cells (5–6 times compared to control) • Normally condensed DNA”.
Turning to `CC(C)[C@H]1OC(=O)[C@H](Cc2ccccc2)N(C)C(=O)[C@@H](C(C)C)OC(=O)[C@H](Cc2ccccc2)N(C)C(=O)[C@@H](C(C)C)OC(=O)[C@H](Cc2ccccc2)N(C)C1=O` [BEA, Beauvericin], the “MIC, A. niger” value with A. niger (ATCC 9142) was greater than 100 µM. Besides, the “MIC, B. subtilis” value in [2] was in the range of 6.25 to 12.5 µM. In addition, in data set [3], the “MIC, A. flavus” value is reported as greater than 100 µM. In the data set with human erythrocytes, the “HC50 (dose causing 50% hemolysis), Erythrocytes” value is recorded as 118.9 ± 15.8 µM. In addition, in the data set with C. perfringens [4], the “membrane depolarization at 100 µM” value is reported as 59.1 ± 2.0%; the “membrane depolarization at four times their MIC” value came out at 63.8 ± 4.8%; the “membrane depolarization at their MIC” value was 38.3 ± 3.3% and 30–40%. The “MIC, H. pylori” value in [5] is greater than 100 µM. Also, the “critical pressure of insertion, POPG” value in data set [6] was “--”. Moreover, the “MIC, A. ochraceus” value against A. ochraceus (DSMZ 824) is on record as greater than 100 µM. Besides, the “MIC, S. aureus” value in [7] was found to be 12.5 µM (≈ 9.8 µg/mL). For the same molecule, the “MIC, A. baumannii” value in [8] is listed as greater than 100 µM. Besides, the “MIC, B. subtilis NR” value in data set [9] fell in the range of 6.25 to 12.5 µM. The “MIC, P. aeruginosa” value in data set [10] was greater than 100 µM. Besides, the “critical pressure of insertion, LTA” value in [11] was “--”. The “MIC, S. chartarum” value in data set [12] is greater than 100 µM. In [13], the “MIC, C. perfringens” value was determined as 6.25 µM (≈ 4.9 µg/mL). Moreover, in data set [14], the “critical pressure of insertion, POPC” value is recorded as 41.65 mN/m and the “critical pressure of insertion, POPE” value is on record as 32.46 mN/m. The “MIC, F. graminearum” value in [15] is 25 µM (≈ 19.6 µg/mL). The “MIC, F. verticillioides” value in data set [16] is greater than 100 µM. In addition, half-maximal inhibition in data set [17] (IC50) required 5.4 ± 0.9 µM. In [18], the “MIC, F. oxysporum” value is greater than 100 µM. For the same molecule, the “percentage of permeabilization at four times the MIC” value in the data set on C. perfringens [19] is 1.8 ± 2.8%. Further, in [20], the “MIC, M. smegmatis” value is recorded as 25 µM (≈ 19.6 µg/mL). The “MIC, E. coli” value in data set [21] is greater than 100 µM. The “MIC, P. verrucosum” value in data set [22] was greater than 100 µM. Further, in [23], half-maximal inhibition (IC50) required 27.5 ± 0.7 µM. Besides, in the data set with C. perfringens [1], the Known/possible target result is on record as “Protein biosynthesis” and the “Observed Morphology” value was “• No cell elongation • DNA condensed in 1–4 circles per cells”. The “MIC, E. faecalis” value in [24] was 12.5 µM (≈ 9.8 µg/mL). For the same molecule, the “MIC, S. aureus MRSA” value in [25] was 6.25 to 12.5 µM. Further, the “MIC, C. albicans” value in data set [26] amounted to 6.25 µM (≈ 4.9 µg/mL).
With `CO/N=C1\CN(c2nc3c(cc2F)c(=O)c(C(=O)O)cn3C2CC2)CC1CN` (stereo not shown) [Gemifloxacin, reference compound], the “Observed Morphology” value with C. perfringens [1] (setting [27]) is given as “• Elongated cells (5–6 times compared to control) • Decondensed DNA • Chain formation”.
Turning to `CO[C@H]1/C=C/O[C@@]2(C)Oc3c(C)c(O)c4c(O)c(c(/C=N/N5CCN(C)CC5)c(O)c4c3C2=O)NC(=O)/C(C)=C\C=C\[C@H](C)[C@H](O)[C@@H](C)[C@@H](O)[C@@H](C)[C@H](OC(C)=O)[C@@H]1C` [Rifampicin, reference compound], the “Observed Morphology” value in the data set with C. perfringens [1] (setting [27]) is “• No cell elongation • DNA condensed in one filament crossing the cells”.
Turning to `CN(C)[C@@H]1C(O)=C(C(N)=O)C(=O)[C@@]2(O)C(O)=C3C(=O)c4c(O)cccc4[C@@](C)(O)[C@H]3C[C@@H]12` [Tetracycline, reference compound], the “Observed Morphology” value in the data set on C. perfringens [1] (setting [27]) was “• Some cell elongation (1.5–2 times compared to control) • DNA condensed in 1–4 circles per cells”.

Values taken from PMC6784244 (Toxins, 2019).
